US7595398B2, “N-(5-membered aromatic ring)-amido anti-viral compounds” (SmithKline Beecham Corporation, priority 2005, dated 2009)

System: HCV replicon I389luc-ubi-neo/NS3-3′/ET in ET (Huh-lucubineo-ET) cells; screening for HCV RNA dependent RNA polymerase
Assay: Replicon Assay (luciferase, ET cell line Huh-lucubineo-ET)
Format: cell-based
Details: Hepatitis C virus; inhibition of replication relative to no compound control; test concentration of 10 μM according to the fitted equation; luciferase 48-72 hours
Procedure, shortened: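 Huh-derived ET cells stably carrying an I389luc-ubi-neo/NS3-3′/ET HCV replicon with a luciferase-ubiquitin-neomycin phosphotransferase fusion and adaptive NS3-5B mutations were cultured in DMEM with 10% fetal calf serum and 250 μg/mL G418. Cells were seeded at 0.5-1.0×10^4 cells/well in 96 well plates and given compound after 24 hrs. Luciferase was read 48-72 hours later with Bright-Glo reagents, and replication inhibition was expressed relative to untreated controls.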

SMILES	inhibition at 10 µM
O=C(Nc1ncc(Cc2ccc(Cl)cc2)s1)[C@@H]1CCCN1C(=O)OCc1ccccc1 [Compound 5063, 2-[5-(4-Chloro-benzyl)-thiazol-2-ylcarbamoyl]-pyrrolidine-1-carboxylic acid benzyl ester]	51.7%
Cc1ccc(Cc2cnc(NC(=O)[C@@H]3CCCN3C(=O)OCc3ccccc3)s2)cc1Cl [Compound 5025, 2-[5-(3-Chloro-4-methyl-benzyl)-thiazol-2-ylcarbamoyl]-pyrrolidine-1-carboxylic acid benzyl ester]	2.86%
O=C(Nc1ncc(Cc2cccc(Cl)c2Cl)s1)[C@@H]1CCCN1C(=O)OCc1ccccc1 [Compound 5012, 2-[5-(2,3-Dichloro-benzyl)-thiazol-2-ylcarbamoyl]-pyrrolidine-1-carboxylic acid benzyl ester]	1.01%
O=C(Nc1ccc(-c2csc(NC(=O)[C@@H]3CCCN3C(=O)OCc3ccccc3)n2)cc1)c1ccc(Cl)cc1 [Compound 5036, 2-{4-[4-(4-Chloro-benzoylamino)-phenyl]-thiazol-2-ylcarbamoyl}-pyrrolidine-1-carboxylic acid benzyl ester]	100%
Cc1cccc(Cc2cnc(NC(=O)[C@@H]3CCCN3C(=O)OCc3ccccc3)s2)c1 [Compound 5067, 2-[5-(3-Methyl-benzyl)-thiazol-2-ylcarbamoyl]-pyrrolidine-1-carboxylic acid benzyl ester]	23.9%
O=C(Nc1nc(-c2ccc(OCc3ccc(Br)cc3)cc2)cs1)[C@@H]1CCCN1C(=O)OCc1ccccc1 [Compound 5066, 2-{4-[4-(4-Bromo-benzyloxy)-phenyl]-thiazol-2-ylcarbamoyl}-pyrrolidine-1-carboxylic acid benzyl ester]	5.72%
O=C(NC1CC1)c1ccc(-c2csc(NC(=O)[C@@H]3CCCN3C(=O)NCc3ccccc3)n2)cc1 [Compound 5342, Pyrrolidine-1,2-dicarboxylic acid 1-benzylamide 2-{[4-(4-cyclopropylcarbamoyl-phenyl)-thiazol-2-yl]-amide}]	95.2%
COc1ccc2cc(-c3csc(NC(=O)[C@@H]4CCCN4C(=O)OCc4ccccc4)n3)c(=O)oc2c1 [Compound 5043, 2-[4-(7-Methoxy-2-oxo-2H-chromen-3-yl)-thiazol-2-ylcarbamoyl]-pyrrolidine-1-carboxylic acid benzyl ester]	3.61%
O=C(NC1CC1)c1ccc(-c2csc(NC(=O)[C@@H]3CCCN3C(=O)c3ccccc3)n2)cc1 [Compound 5367, 1-Benzoyl-pyrrolidine-2-carboxylic acid [4-(4-cyclopropylcarbamoyl-phenyl)-thiazol-2-yl]-amide]	97.3%
Cc1ccc(C)c(-c2cnc(NC(=O)[C@@H]3CCCN3C(=O)OCc3ccccc3)s2)c1 [Compound 5042, 2-[5-(2,5-Dimethyl-phenyl)-thiazol-2-ylcarbamoyl]-pyrrolidine-1-carboxylic acid benzyl ester]	90.3%
O=C(Nc1cccc(-c2csc(NC(=O)C3CCCN3C(=O)OCc3ccccc3)n2)c1)C1CC1 (stereo not drawn) [Compound 5039, 2-{4-[3-(Cyclopropanecarbonyl-amino)-phenyl]-thiazol-2-ylcarbamoyl}-pyrrolidine-1-carboxylic acid benzyl ester]	99.6%
O=C(NC1CNC1)c1ccc(-c2csc(NC(=O)[C@@H]3CCCN3C(=O)OCc3ccccc3)n2)cc1 [Compound 5337, 2-{4-[4-(Azetidin-3-ylcarbamoyl)-phenyl]-thiazol-2-ylcarbamoyl}-pyrrolidine-1-carboxylic acid benzyl ester]	100%
O=C(Nc1nc(-c2ccc(C(=S)NC3CC3)cc2)cs1)[C@@H]1CCCN1C(=O)OCc1ccccc1 [Compound 5308, 2-[4-(4-Cyclopropylthiocarbamoyl-phenyl)-thiazol-2-ylcarbamoyl]-pyrrolidine-1-carboxylic acid benzyl ester]	100%
CS(=O)(=O)Nc1ccc(-c2csc(NC(=O)C3CCCN3C(=O)OCc3ccccc3)n2)cc1 (stereo not drawn) [Compound 5004, 2-[4-(4-Methanesulfonylamino-phenyl)-thiazol-2-ylcarbamoyl]-pyrrolidine-1-carboxylic acid benzyl ester]	99.9%
O=C(NC1CC1)c1ccc(-c2csc(NC(=O)C3CCCN3C(=O)OCc3cccnc3)n2)cc1 (stereo not drawn) [Compound 5320, 2-[4-(4-Cyclopropylcarbamoyl-phenyl)-thiazol-2-ylcarbamoyl]-pyrrolidine-1-carboxylic acid pyridin-3-ylmethyl ester]	99.8%
CCC(=O)Nc1ccc(-c2csc(NC(=O)[C@@H]3CCCN3C(=O)OCc3ccccc3)n2)cc1 [Compound 5017, 2-[4-(4-Propionylamino-phenyl)-thiazol-2-ylcarbamoyl]-pyrrolidine-1-carboxylic acid benzyl ester]	99.7%
O=C(Nc1nc(-c2cccnc2)cs1)[C@@H]1CCCN1C(=O)OCc1ccccc1 [Compound 5338, 2-(4-Pyridin-3-yl-thiazol-2-ylcarbamoyl)-pyrrolidine-1-carboxylic acid benzyl ester]	75.2%

SMILES	inhibition at 10 µM
CC(C)(C)NC(=O)c1ccc(-c2csc(NC(=O)[C@@H]3CCCN3C(=O)OCc3ccccc3)n2)cc1 [Compound 5326, 2-[4-(4-tert-Butylcarbamoyl-phenyl)-thiazol-2-ylcarbamoyl]-pyrrolidine-1-carboxylic acid benzyl ester]	100%
O=C(Nc1nc(-c2ccc(NS(=O)(=O)C3CC3)cc2)cs1)[C@@H]1CCCN1C(=O)OCc1ccccc1 [Compound 5329, 2-[4-(4-Cyclopropanesulfonylamino-phenyl)-thiazol-2-ylcarbamoyl]-pyrrolidine-1-carboxylic acid benzyl ester]	97%
O=C(Nc1nc(-c2cccc3ccccc23)cs1)[C@@H]1CCCN1C(=O)OCc1ccccc1 [Compound 5055, 2-(4-Naphthalen-1-yl-thiazol-2-ylcarbamoyl)-pyrrolidine-1-carboxylic acid benzyl ester]	99.3%
O=C(NC1CC1)c1ccc(-c2csc(NC(=O)[C@@H]3CSCN3C(=O)OCc3ccccc3)n2)cc1 [Compound 5327, 4-[4-(4-Cyclopropylcarbamoyl-phenyl)-thiazol-2-ylcarbamoyl]-thiazolidine-3-carboxylic acid benzyl ester]	100%
CN(C)c1ccc(-c2csc(NC(=O)C3CCCN3C(=O)OCc3ccccc3)n2)cc1 (stereo not drawn) [Compound 5013, 2-[4-(4-Dimethylamino-phenyl)-thiazol-2-ylcarbamoyl]-pyrrolidine-1-carboxylic acid benzyl ester]	97%
O=C(Nc1nc(-c2ccc(NCC3CCCC3)cc2)cs1)[C@@H]1CCCN1C(=O)OCc1ccccc1 [Compound 5380, 2-{4-[4-(Cyclopentylmethyl-amino)-phenyl]-thiazol-2-ylcarbamoyl}-pyrrolidine-1-carboxylic acid benzyl ester]	98.3%
O=C(Nc1ncc(Cc2ccccc2Cl)s1)[C@@H]1CCCN1C(=O)OCc1ccccc1 [Compound 5052, 2-[5-(2-Chloro-benzyl)-thiazol-2-ylcarbamoyl]-pyrrolidine-1-carboxylic acid benzyl ester]	1.2%
O=C(NC1CC1)c1ccc(-c2csc(NC(=O)[C@@H]3SCCN3C(=O)OCc3ccccc3)n2)cc1 [Compound 5350, 2-[4-(4-Cyclopropylcarbamoyl-phenyl)-thiazol-2-ylcarbamoyl]-thiazolidine-3-carboxylic acid benzyl ester]	100%
O=C(NC1CC1)c1ccc(-c2csc(NC(=O)[C@@H]3CCCN3C(=O)Cc3ccccc3)n2)cc1 [Compound 5325, 1-Phenylacetyl-pyrrolidine-2-carboxylic acid [4-(4-cyclopropylcarbamoyl-phenyl)-thiazol-2-yl]-amide]	86.9%
CNc1ccc(-c2csc(NC(=O)C3CCCN3C(=O)OCc3ccccc3)n2)cc1 (stereo not drawn) [Compound 5049, 2-[4-(4-Methylamino-phenyl)-thiazol-2-ylcarbamoyl]-pyrrolidine-1-carboxylic acid benzyl ester]	95.6%
NC(=O)Nc1ccc(-c2csc(NC(=O)[C@@H]3CCCN3C(=O)OCc3ccccc3)n2)cc1 [Compound 5314, 2-[4-(4-Ureido-phenyl)-thiazol-2-ylcarbamoyl]-pyrrolidine-1-carboxylic acid benzyl ester]	100%
O=C(NC1CC1)c1ccc(-c2cnc(NC(=O)[C@@H]3CCCN3C(=O)OCc3ccccc3)s2)cc1 [Compound 5352, 2-[5-(4-Cyclopropylcarbamoyl-phenyl)-thiazol-2-ylcarbamoyl]-pyrrolidine-1-carboxylic acid benzyl ester]	7.07%
O=C(NCCCN1CCOCC1)c1ccc(-c2csc(NC(=O)[C@@H]3CCCN3C(=O)OCc3ccccc3)n2)cc1 [Compound 5324, 2-{4-[4-(3-Morpholin-4-yl-propylcarbamoyl)-phenyl]-thiazol-2-ylcarbamoyl}-pyrrolidine-1-carboxylic acid benzyl ester]	100%
O=C(NCCN1CCCCC1)c1ccc(-c2csc(NC(=O)[C@@H]3CCCN3C(=O)OCc3ccccc3)n2)cc1 [Compound 5307, 2-{4-[4-(2-Piperidin-1-yl-ethylcarbamoyl)-phenyl]-thiazol-2-ylcarbamoyl}-pyrrolidine-1-carboxylic acid benzyl ester]	100%
Nc1ccc(-c2csc(NC(=O)C3CCCN3C(=O)OCc3ccccc3)n2)cc1 (stereo not drawn) [Compound 5050, 2-[4-(4-Amino-phenyl)-thiazol-2-ylcarbamoyl]-pyrrolidine-1-carboxylic acid benzyl ester]	99.8%
O=C(NC1CCNC1)c1ccc(-c2csc(NC(=O)[C@@H]3CCCN3C(=O)OCc3ccccc3)n2)cc1 (stereo partly drawn) [Compound 5322, 2-{4-[4-(Pyrrolidin-3-ylcarbamoyl)-phenyl]-thiazol-2-ylcarbamoyl}-pyrrolidine-1-carboxylic acid benzyl ester]	100%
